The nature of series [1]: Bioavailability of three formulations, single oral gavage dose, plasma pharmacokinetics. Type of series: in vivo. The conditions noted are these: Formula C, fasted male dogs, individual dogs and Mean; for Plasma concentration: oral 300 mg/kg. As for the experimental part: Three formulations were evaluated for the bioavilability of [1-(4-tert-butylbenzyl)-5-(3-methylphenyl)-1h-indol-3-yl](oxo)acetic acid in male dogs. Following a single oral (gavage, 300 mg/kg) dose of [1-(4-tert-butylbenzyl)-5-(3-methylphenyl)-1h-indol-3-yl](oxo)acetic acid, blood samples were drawn at 0 (predose), 0.25, 0.5, 1, 2, 3, 4, 6, 8, 10, 12, 24 and 30 hours. The pharmacokinetic parameters, AUC, Cmax, tmax and t1/2, were determined for each dog, and descriptive statistics were calculated for comparison among formulations.
Individual plasma concentrations over time after dosing Formula C are tabulated and plotted in Table 2 and FIG. 2 respectively.

Series [2] is described as follows: Solubility profile (free acid in HCl/NaOH solution, centrifugation, supernatant assayed by HPLC). The class given is physicochemical. The source says:
In some embodiments, the [1-(4-tert-Butylbenzyl)-5-(3-methylphenyl)-1H-indol-3-yl](oxo)acetic acid used with the composition of the invention is micronized.

≈ marks a conversion by molar mass, not a printed value. Where “and” joins values, the source holds several entries; their conditions need not be identical. Identical values can stand only once. Entries after “also recorded” stand apart in the source; their conditions may differ. Like-named read-outs stand apart in the source and are kept apart here.

With `Cc1cccc(-c2ccc3c(c2)c(C(=O)C(=O)O)cn3Cc2ccc(C(C)(C)C)cc2)c1` [[1-(4-tert-Butylbenzyl)-5-(3-methylphenyl)-1H-indol-3-yl](oxo)acetic acid], the Plasma concentration in series [1] (0.25 hours after dose) was 2200 ng/mL and 3390 ng/mL and 3290 ng/mL; in series [1] (0.5 hours after dose), 7500 ng/mL and 10400 ng/mL and 9190 ng/mL; in series [1] (1 hour after dose) it was 18100 ng/mL and 21100 ng/mL and 20000 ng/mL; in series [1] (2 hours after dose) it was 26300 ng/mL and 34700 ng/mL and 34100 ng/mL; in series [1] (4 hours after dose) it was 29300 ng/mL and 31900 ng/mL and 46600 ng/mL; in series [1] (6 hours after dose), 26900 ng/mL and 30300 ng/mL and 48000 ng/mL. The Plasma concentration is 26500 ng/mL and 24000 ng/mL and 37600 ng/mL in series [1] (8 hours after dose); 25300 ng/mL and 40100 ng/mL and 15900 ng/mL and 28200 ng/mL in series [1] (10 hours after dose); 19700 ng/mL and 43600 ng/mL and 12400 ng/mL and 22300 ng/mL in series [1] (12 hours after dose); 4720 ng/mL and 25900 ng/mL and 2410 ng/mL and 21900 ng/mL in series [1] (24 hours after dose); 2610 ng/mL and 15200 ng/mL and 1240 ng/mL and 10600 ng/mL in series [1] (30 hours after dose). Moreover, in series [1] (male, dog, in vivo, po, 300 mg/kg, 0.25 hours after dose), the concentration at 0.25 h was found to be 2330 ng/mL. The same compound displayed a concentration at 0.5 h in series [1] (male, dog, in vivo, po, 300 mg/kg, 0.5 hours after dose) of 8190 ng/mL. In addition, the concentration at 1 h in series [1] (male, dog, in vivo, po, 300 mg/kg, 1 hour after dose) came to 16700 ng/mL. In series [1] (male, dog, in vivo, po, 300 mg/kg, 2 hours after dose), this compound showed a concentration at 2 h of 30000 ng/mL. Besides, the concentration at 4 h in series [1] (male, dog, in vivo, po, 300 mg/kg, 4 hours after dose) is 43000 ng/mL. The compound also registered a concentration at 6 h in series [1] (male, dog, in vivo, po, 300 mg/kg, 6 hours after dose) of 39400 ng/mL. Besides, the concentration at 8 h in series [1] (male, dog, in vivo, po, 300 mg/kg, 8 hours after dose) worked out at 31900 ng/mL. In addition, the solubility enhancement in series [2] (2% Tween80/0.5% methylcellulose solution versus water) is recorded as 26.000 fold. In addition, the solubility (commonly the dissolved amount per volume that the medium holds) is 580 µg/mL (≈ 1360 µM) in series [2] (2% Tween80/0.5% methylcellulose solution, pH 3.5, aqueous with cosolvent or surfactant or cyclodextrin, read-out: solubility) and ~0.25 µg/mL (≈ 0.588 µM) in series [2] (aqueous HCl/NaOH solution, aqueous buffer, thermodynamic from solid, in the ionized form (so in the source), read-out: aqueous solubility). Also, the pH-solubility profile result in series [2] (free acid in HCl/NaOH solution, 24 hours equilibration (2 hours for pH<4)) was “Above pH 4, solubility increases with increasing pH up to pH˜8; also recorded: Above pH 8, solubility decreases due to precipitation of the sodium salt”. The aqueous solubility result in series [2] (upon ionization in aqueous media) was “approximately 24 uG/mL”. Besides, the solubility at 24 h in series [2] (water, thermodynamic from solid, neutral pH 6.9) was 24 µg/mL (≈ 56.4 µM).

The record behind these values is US20080188540A1, “PHARMACEUTICAL COMPOSITIONS CONTAINING SUBSTITUTED INDOLE ACID DERIVATIVES AS INHIBITORS OF PLASMINOGEN ACTIVATOR INHIBITOR-1 (PAI-1)” (Wyeth, priority 2007, published 2008).
